Measured values as given in patent US4599228A, “Antimicrobial agent” (Vipont Laboratories, Inc., priority 1984, dated 1986).
“Also recorded” adds a separate entry of the source. Where two headings read alike, the source gives them in different places.

Legend:
[1] = test system: dental plaque / plaque forming microorganisms; experiment: In vivo plaque, gingivitis and periodontal disease treatment of dogs and humans
Streptococcus mutans [2] = experiment: Inhibitory concentration in vitro, separate test; type: cell-based
Experimental: (§1) A separate test was conducted to determine the inhibitory concentration of sanguinarine chloride alone. These concentrations, for microorganisms in vitro, are as follows: […]

Candida albicans = experiment: Inhibitory concentration in vitro, separate test; type: cell-based
Experimental: as §1

Staphylococcus aureus [3] = experiment: Inhibitory concentration in vitro, separate test; type: cell-based
Experimental: as §1

Escherichia coli [4] = experiment: Inhibitory concentration in vitro, separate test; type: cell-based
Experimental: as §1

[5] = test system: plaque forming microorganisms freshly collected from human dental plaque; experiment: Dental plaque reduction in vitro; type: cell-based
infection = experiment: In vivo antimicrobial action and tolerability (clinical studies)
microorganisms = experiment: General antimicrobial activity in vitro; type: cell-based
Source text: When zinc chloride was replaced with a fluoride salt in the present preparations, the activity of the preparation against microorganisms believed to be associated with the causation of dental caries and periodontal disease (Streptococcus mutans), as well as other microorganisms, remained identical.

[6] = test system: gingivitis, plaque and pocket depth in dogs; experiment: Oral Clinical Studies - Beagles (dogs); type: in vivo, beagle dogs; design: Mean Gingivitis Scores / Mean Plaque Scores: scale not given here; conditions: for Mean Gingivitis Scores / Mean Plaque Scores / Mean Pocket Depths / gingivitis, activity in words / return of dental plaque, activity in words: beagles; for Mean Gingivitis Scores / Mean Plaque Scores / Mean Pocket Depths: 0.1% sanguinarine chloride and/or 2.7% zinc chloride; for gingivitis, activity in words / return of dental plaque, activity in words: four weeks of treatment
Experimental: The dogs were treated topically once daily with the respective test formulation.

Streptococcus mutans [7] = experiment: Mean inactivating dose in vitro; type: cell-based; conditions: per ml of media
Experimental: (§2) In order to illustrate the antimicrobial effectiveness of the composition according to the present invention, a series of in vitro and in vivo tests were performed.

Saccharomyces cerevisiae = experiment: Mean inactivating dose in vitro; type: cell-based; conditions: per ml of media
Experimental: as §2

Proteus vulgaris = experiment: Mean inactivating dose in vitro; type: cell-based; conditions: per ml of media
Experimental: as §2

Bacillus subtilis = experiment: Mean inactivating dose in vitro; type: cell-based; conditions: per ml of media
Experimental: as §2

Klebsiella pneumoniae = experiment: Mean inactivating dose in vitro; type: cell-based; conditions: per ml of media
Experimental: as §2

Staphylococcus aureus [8] = experiment: Mean inactivating dose in vitro; type: cell-based; conditions: per ml of media
Experimental: as §2

Streptococcus faecalis = experiment: Mean inactivating dose in vitro; type: cell-based; conditions: per ml of media
Experimental: as §2

Escherichia coli [9] = experiment: Mean inactivating dose in vitro; type: cell-based; conditions: per ml of media
Experimental: as §2

Pseudomonas aeruginosa = experiment: Mean inactivating dose in vitro; type: cell-based; conditions: per ml of media
Experimental: as §2

fungi and protozoa = conditions: in solution; cited from earlier work
[10] = 0 (start), baseline, topical once daily
[11] = after 4 weeks, topical once daily, untreated 0.91
[12] = after 4 weeks, topical once daily, untreated 1.458
[13] = after 4 weeks, topical once daily, untreated 12.408

C[n+]1cc2c3c(ccc2c2ccc4cc5c(cc4c21)OCO5)OCO3 [Sanguinarine chloride, sanguinarine chloride]
effect against plaque forming microorganisms in vivo ([1]; in vivo): ineffective against plaque forming microorganisms
effect on dental plaque, gingivitis and periodontal disease ([1]; repeated or continuous treatment of affected area, dogs and humans): did not reduce dental plaque or alleviate the symptoms of gingivitis or periodontal disease; also recorded: did not prevent the accumulation of dental plaque on teeth or prevent the occurrence of periodontal disease
MIC (Streptococcus mutans [2]): 50 µg/mL
MIC (Candida albicans): 100 µg/mL
MIC (Staphylococcus aureus [3]): 10 µg/mL
MIC (Escherichia coli [4]): 100 µg/mL
comparison with chlorhexidine (Hibitane), inhibition of plaque forming microorganisms [5]: compared favorably in vitro to chlorhexidine
reduction of dental plaque ([5]; 25 micrograms per milliliter): 100%
in vivo effectiveness / antimicrobial action (infection): only slightly effective or not at all; also recorded: only slightly antimicrobial, very slow acting, or had no effect on the course of the infection at all
antimicrobial properties (microorganisms): strong antimicrobial properties
antimicrobial properties (microorganisms; listed as sanguinarine chloride): quite effective against microorganisms
Mean Gingivitis Scores [6, 10]: 0.495
Mean Plaque Scores [6, 10]: 8.885
Mean Pocket Depths [6, 10]: 1.415
plaque and gingivitis scores, rank among groups ([6]; 24 male beagle dogs, after four weeks, topical once daily): highest
Mean Gingivitis Scores [6, 11]: 0.942
Mean Pocket Depths [6, 12]: 1.48
Mean Plaque Scores [6, 13]: 12.89
gingivitis, activity in words [6]: no activity in vivo at all
return of dental plaque, activity in words [6]: not active in vivo

[Cl-].[Cl-].[Zn+2] [Zinc chloride, zinc chloride, reference compound]
speed of action in vivo (infection): slow acting in vivo as an antimicrobial agent
tissue damage / undesirable side effects (infection; concentrations required for antimicrobial action): caused blanching of tissue and, in some cases, chemical burns and other tissue damage
antimicrobial properties (microorganisms): antimicrobial properties only in high concentrations
Mean Gingivitis Scores [6, 10]: 0.44
Mean Plaque Scores [6, 10]: 8.76
Mean Pocket Depths [6, 10]: 1.46
Mean Gingivitis Scores [6, 11]: 0.75
Mean Pocket Depths [6, 12]: 1.37
Mean Plaque Scores [6, 13]: 10.15
gingivitis, activity in words [6]: slightly active
return of dental plaque, activity in words [6]: slightly preventive
Mean inactivating dose (Streptococcus mutans [7]): 1,563 μg/ml
Mean inactivating dose (Saccharomyces cerevisiae): 6,250 μg/ml
Mean inactivating dose (Proteus vulgaris): 12,500 μg/ml
Mean inactivating dose (Bacillus subtilis): 25,000 μg/ml
Mean inactivating dose (Klebsiella pneumoniae): 3,125 μg/ml
Mean inactivating dose (Staphylococcus aureus [8]): 6,250 μg/ml
Mean inactivating dose (Streptococcus faecalis): 25,000 μg/ml
Mean inactivating dose (Escherichia coli [9]): 6,250 μg/ml
Mean inactivating dose (Pseudomonas aeruginosa): 3,500 μg/ml

COc1ccc2c(c[n+](C)c3c4cc5c(cc4ccc23)OCO5)c1OC [chelerythrine chloride]
antimicrobial properties (microorganisms): strong antimicrobial properties

C[n+]1cc2c3c(ccc2c2ccc4cc5c(cc4c21)OCO5)OCO3 [sanguinarine]
antifungal and antiprotozoan properties (fungi and protozoa): some antifungal and antiprotozoan properties
